Measured values taken from ChEMBL document CHEMBL1201862, “PubChem BioAssay data set” (2004).
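Test compounds were applied to cells in 96-well plates for 48 hours at 5 doses. GI50: concentration for 50% inhibition of growth.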 Calls of active or inactive are those of the source. No stated cut-off is given here; in the data, active = GI50 up to about 1.1 µM and inactive = higher.

What was measured:
Test in all cases: DTP human tumour cell line panel, 48 h
DU-145 = tested on: DU-145
HCT-116 = tested on: HCT-116
HOP-62 = tested on: HOP-62
K562 = tested on: K562
MCF7 = tested on: MCF7
MDA-MB-435 = tested on: MDA-MB-435
MDA-N = tested on: MDA-N
MOLT-4 = tested on: MOLT-4
OVCAR-3 = tested on: OVCAR-3
OVCAR-8 = tested on: OVCAR-8
SF-539 = tested on: SF-539
SK-MEL-28 = tested on: SK-MEL-28
SK-MEL-2 = tested on: SK-MEL-2
SN12C = tested on: SN12C
SNB-75 = tested on: SNB-75
UACC-62 = tested on: UACC-62
UO-31 = tested on: UO-31
Hs-578T = tested on: Hs-578T

Q: For `O=C(O)CCC(NC(=O)c1ccc(Oc2nc3ccccc3nc2-c2ccccc2)cc1)C(=O)O` (centres undefined), which GI50 (DU-145) is on record?
A: The GI50 was > 100 µM (inactive).

Q: What about the GI50 (HCT-116) of the same compound?
A: Its GI50 is > 100 µM (inactive).

Q: What about the GI50 (HOP-62) of the same compound?
A: Its GI50 is > 100 µM (inactive).

Q: And the GI50 (K562)?
A: Its GI50 is > 100 µM (inactive).

Q: What about the GI50 (MCF7) of the same compound?
A: The GI50 was > 100 µM (inactive).

Q: And the GI50 (MDA-MB-435)?
A: Its GI50 is > 100 µM (inactive).

Q: And the GI50 (MDA-N)?
A: Its GI50 is > 100 µM (inactive).

Q: And the GI50 (MOLT-4)?
A: Its GI50 is > 100 µM (inactive).

Q: And the GI50 (OVCAR-3)?
A: Its GI50 is > 100 µM (inactive).

Q: What about the GI50 (OVCAR-8) of the same compound?
A: The GI50 was > 100 µM (inactive).

Q: What about the GI50 (SF-539) of the same compound?
A: The GI50 was > 100 µM (inactive).

Q: What about the GI50 (SK-MEL-28) of the same compound?
A: Its GI50 is > 100 µM (inactive).

Q: What about the GI50 (SK-MEL-2) of the same compound?
A: Its GI50 is > 100 µM (inactive).

Q: And the GI50 (SN12C)?
A: The GI50 was > 100 µM (inactive).

Q: And the GI50 (SNB-75)?
A: The GI50 was > 100 µM (inactive).

Q: What about the GI50 (UACC-62) of the same compound?
A: Its GI50 is > 100 µM (inactive).

Q: What about the GI50 (UO-31) of the same compound?
A: The GI50 was > 100 µM (inactive).

Q: Which results are given for `O=C1CC(CC(=O)c2ccc(Br)cc2)C(O)=C1C(=O)c1ccc(Br)cc1` (centres undefined)?
A: GI50 (DU-145): > 100 µM (inactive); GI50 (HCT-116): 54.2 µM (inactive); GI50 (HOP-62): 94.4 µM (inactive); GI50 (Hs-578T): 50 µM (inactive); GI50 (K562): 44.9 µM (inactive); GI50 (MCF7): > 100 µM (inactive); GI50 (MDA-MB-435): > 100 µM (inactive); GI50 (MDA-N): > 100 µM (inactive); GI50 (MOLT-4): 41.7 µM (inactive); GI50 (OVCAR-3): 32.6 µM (inactive); GI50 (OVCAR-8): 99.8 µM (inactive); GI50 (SF-539): 56.4 µM (inactive); GI50 (SK-MEL-28): > 100 µM (inactive); GI50 (SK-MEL-2): > 100 µM (inactive); GI50 (SN12C): > 100 µM (inactive); GI50 (UACC-62): 42.6 µM (inactive); GI50 (UO-31): 57.9 µM (inactive)

Q: With `Cc1nc2cc3nc4ccccc4c(O)c3cc2s1` as the compound, how does the GI50 (HCT-116) read?
A: The GI50 was > 100 µM (inactive).

Q: What about the GI50 (HOP-62) of the same compound?
A: The GI50 was > 100 µM (inactive).

Q: What about the GI50 (K562) of the same compound?
A: Its GI50 is > 100 µM (inactive).

Q: What about the GI50 (MOLT-4) of the same compound?
A: The GI50 was > 100 µM (inactive).

Q: What about the GI50 (OVCAR-3) of the same compound?
A: Its GI50 is > 100 µM (inactive).

Q: What about the GI50 (OVCAR-8) of the same compound?
A: Its GI50 is > 100 µM (inactive).

Q: What about the GI50 (SF-539) of the same compound?
A: Its GI50 is > 100 µM (inactive).

Q: What about the GI50 (SK-MEL-2) of the same compound?
A: Its GI50 is > 100 µM (inactive).

Q: What about the GI50 (SN12C) of the same compound?
A: The GI50 was > 100 µM (inactive).

Q: And the GI50 (SNB-75)?
A: Its GI50 is > 100 µM (inactive).

Q: And the GI50 (UACC-62)?
A: The GI50 was > 100 µM (inactive).

Q: What about the GI50 (UO-31) of the same compound?
A: The GI50 was > 100 µM (inactive).

Q: Which GI50 (DU-145) does the source give for `COc1cc2c(cc1C)NC(=O)/C2=C\c1ccncc1` here?
A: The GI50 was 3.09 µM (inactive).

Q: And the GI50 (HCT-116)?
A: The GI50 was 2.34 µM (inactive).

Q: And the GI50 (HOP-62)?
A: The GI50 was 6.97 µM (inactive).

Q: And the GI50 (Hs-578T)?
A: Its GI50 is 3.6 µM (inactive).

Q: What about the GI50 (K562) of the same compound?
A: Its GI50 is 3.66 µM (inactive).

Q: What about the GI50 (MCF7) of the same compound?
A: The GI50 was 3.03 µM (inactive).

Q: And the GI50 (MDA-MB-435)?
A: The GI50 was 4.14 µM (inactive).

Q: What about the GI50 (OVCAR-3) of the same compound?
A: Its GI50 is 3.9 µM (inactive).

Q: What about the GI50 (OVCAR-8) of the same compound?
A: Its GI50 is 2.52 µM (inactive).

Q: And the GI50 (SF-539)?
A: Its GI50 is 2.82 µM (inactive).

Q: What about the GI50 (SK-MEL-28) of the same compound?
A: Its GI50 is 11.1 µM (inactive).

Q: What about the GI50 (SK-MEL-2) of the same compound?
A: The GI50 was 2.97 µM (inactive).

Q: And the GI50 (SN12C)?
A: The GI50 was 6.15 µM (inactive).

Q: And the GI50 (SNB-75)?
A: The GI50 was 13.4 µM (inactive).

Q: And the GI50 (UACC-62)?
A: Its GI50 is 5.53 µM (inactive).

Q: And the GI50 (UO-31)?
A: The GI50 was 4.1 µM (inactive).

Q: How did the GI50 (DU-145) turn out when `O=c1ccc(=O)c2c1c1[nH]c3ccccc3c1c1c(=O)c3ccccc3c(=O)c21` was run?
A: The GI50 was > 10 µM (inactive).

Q: What about the GI50 (HCT-116) of the same compound?
A: Its GI50 is > 10 µM (inactive).

Q: What about the GI50 (HOP-62) of the same compound?
A: Its GI50 is > 10 µM (inactive).

Q: What about the GI50 (Hs-578T) of the same compound?
A: Its GI50 is > 10 µM (inactive).

Q: And the GI50 (K562)?
A: Its GI50 is 5.32 µM (inactive).

Q: And the GI50 (MDA-MB-435)?
A: The GI50 was > 10 µM (inactive).

Q: And the GI50 (MOLT-4)?
A: Its GI50 is 3.24 µM (inactive).

Q: What about the GI50 (OVCAR-3) of the same compound?
A: Its GI50 is > 10 µM (inactive).

Q: And the GI50 (OVCAR-8)?
A: Its GI50 is > 10 µM (inactive).

Q: What about the GI50 (SF-539) of the same compound?
A: Its GI50 is > 10 µM (inactive).

Q: What about the GI50 (SK-MEL-28) of the same compound?
A: The GI50 was > 10 µM (inactive).

Q: What about the GI50 (SK-MEL-2) of the same compound?
A: Its GI50 is > 10 µM (inactive).

Q: What about the GI50 (SN12C) of the same compound?
A: The GI50 was > 10 µM (inactive).

Q: What about the GI50 (SNB-75) of the same compound?
A: The GI50 was > 10 µM (inactive).

Q: What about the GI50 (UACC-62) of the same compound?
A: The GI50 was > 10 µM (inactive).

Q: What about the GI50 (UO-31) of the same compound?
A: The GI50 was 5.66 µM (inactive).

Q: For `CC1=NN(c2cccc(Cl)c2)C2(SCC(=O)N2c2nc3ccccc3s2)/C1=C\c1ccc(N(C)C)cc1` (centres undefined), which GI50 (DU-145) is on record?
A: Its GI50 is > 100 µM (inactive).

Q: What about the GI50 (HCT-116) of the same compound?
A: Its GI50 is > 100 µM (inactive).

Q: And the GI50 (HOP-62)?
A: The GI50 was 19.4 µM (inactive).

Q: What about the GI50 (Hs-578T) of the same compound?
A: Its GI50 is 21 µM (inactive).

Q: And the GI50 (K562)?
A: Its GI50 is 43.8 µM (inactive).

Q: And the GI50 (MCF7)?
A: Its GI50 is 38.7 µM (inactive).

Q: What about the GI50 (MDA-MB-435) of the same compound?
A: The GI50 was > 100 µM (inactive).

Q: What about the GI50 (MDA-N) of the same compound?
A: The GI50 was > 100 µM (inactive).

Q: And the GI50 (MOLT-4)?
A: Its GI50 is 48.5 µM (inactive).

Q: And the GI50 (OVCAR-3)?
A: Its GI50 is 48.5 µM (inactive).

Q: What about the GI50 (OVCAR-8) of the same compound?
A: The GI50 was 58.9 µM (inactive).

Q: What about the GI50 (SF-539) of the same compound?
A: The GI50 was 52.2 µM (inactive).

Q: What about the GI50 (SK-MEL-28) of the same compound?
A: Its GI50 is > 100 µM (inactive).

Q: What about the GI50 (SK-MEL-2) of the same compound?
A: Its GI50 is 23.9 µM (inactive).

Q: What about the GI50 (UO-31) of the same compound?
A: Its GI50 is > 100 µM (inactive).

Q: What does the source list for `O=C1Nc2ccccc2/C1=N/NC(=S)N1CCCCC1`?
A: GI50 (DU-145): 1.91 µM (inactive); GI50 (HCT-116): 0.216 µM (active); GI50 (HOP-62): 0.3 µM (active); GI50 (MCF7): 1.5 µM (inactive); GI50 (MDA-MB-435): 1.36 µM (inactive); GI50 (MDA-N): 1.48 µM (inactive); GI50 (MOLT-4): 0.354 µM (active); GI50 (OVCAR-3): 0.145 µM (active); GI50 (OVCAR-8): 0.317 µM (active); GI50 (SF-539): 0.082 µM (active); GI50 (SK-MEL-28): 2.17 µM (inactive); GI50 (SK-MEL-2): 1.79 µM (inactive); GI50 (SN12C): 2.17 µM (inactive); GI50 (SNB-75): 1.52 µM (inactive); GI50 (UACC-62): 1.15 µM (inactive); GI50 (UO-31): 0.592 µM (active)
